Data from patent US20260070924A1, “INDAZOLE MACROCYCLES AND THEIR USE” (BLOSSOMHILL THERAPEUTICS, INC., priority 2022, published 2026).

Experiments:
Assay in all cases: Cell proliferation panel (CellTiter-Glo 2.0, 5 days)
Assay type in all cases: cell-based
H23 = settings: Lung adenocarcinoma NSCLC
Experimental: (§1) Cell proliferation assay was carried out in a panel of 108 cell lines. 1000 (attached cells) or 3000 (suspension cells) cells/100 μl per well were seeded in 96 well black plate with a clear bottom (Corning #3904). Compounds were added using Tecan D300e Digital Dispenser in 1:3 titration for 9 doses. Plates were incubated for 5 days at 37° C. and 5% CO2. Cell proliferation was measured using CellTiter-Glo 2.0 luciferase-based ATP detection assay (Promega, Madison, WI) at 50 μl per well following the manufacturer's protocol. Plates were then read on a TECAN Sparks multimode microplate reader. Data was analyzed using GraphPad Prism 9 (GraphPad Software, San Diego, CA) to obtain IC50 values. IC50 values were determined using Prism software (GraphPad Software, San Diego, CA).

SUIT-2 = settings: Pancreatic tubular adenocarcinoma
Experimental: as §1

KCL22S = settings: Chronic myeloid leukemia at blast crisis
Experimental: as §1

786-O = settings: Renal cell adenocarcinoma
Experimental: as §1

769-P = settings: Renal cell adenocarcinoma
Experimental: as §1

H446 = settings: Small cell lung carcinoma
Experimental: as §1

A-498 = settings: Kidney carcinoma
Experimental: as §1

H1688 = settings: Small cell lung carcinoma
Experimental: as §1

Hs746T = settings: Gastric carcinoma
Experimental: as §1

H2444 = settings: Lung adenocarcinoma NSCLC
Experimental: as §1

HCC78 = settings: Non-small cell lung carcinoma
Experimental: as §1

BJ = settings: Skin fibroblast
Experimental: as §1

SK-LU-1 = settings: Lung adenocarcinoma NSCLC
Experimental: as §1

THP-1 = settings: Acute monocytic leukemia
Experimental: as §1

N87 = settings: Gastric carcinoma
Experimental: as §1

HGC-27 = settings: Gastric carcinoma
Experimental: as §1

UCSD-AML1 = settings: Acute myeloid leukemia
Experimental: as §1

MIAPaCa-2 = settings: Pancreatic carcinoma
Experimental: as §1

KASUMI-1 = settings: Acute myeloblastic leukemia
Experimental: as §1

AU565 = settings: Breast adenocarcinoma
Experimental: as §1

TOV-112D = settings: Endometrioid ovarian cancer
Experimental: as §1

EOL-1 = settings: Chronic eosinophilic leukemia
Experimental: as §1

AGS = settings: Gastric adenocarcinoma
Experimental: as §1

H727 = settings: Bronchial lung carcinoid
Experimental: as §1

TF-1 = settings: Erythroleukemia
Experimental: as §1

U118-MG = settings: Brain glioblastoma
Experimental: as §1

SNU-16 = settings: Gastric carcinoma
Experimental: as §1

H358 = settings: Bronchioalveolar carcinoma NSCLC
Experimental: as §1

H1792 = settings: Lung adenocarcinoma NSCLC
Experimental: as §1

Kelly = settings: Neuroblastoma
Experimental: as §1

SW620 = settings: Colorectal adenocarcinoma
Experimental: as §1

H69 = settings: Lung small cell carcinoma
Experimental: as §1

PANC0504 = settings: Pancreatic carcinoma
Experimental: as §1

H1573 = settings: Lung adenocarcinoma NSCLC
Experimental: as §1

PANC0203 = settings: Pancreatic adenocarcinoma
Experimental: as §1

KCL22R = settings: Chronic Myelogenous Leukemia
Experimental: as §1

MOLM14 = settings: Acute myeloid leukemia
Experimental: as §1

PC-9 = settings: Lung adenocarcinoma NSCLC
Experimental: as §1

IMR-32 = settings: Neuroblastoma
Experimental: as §1

COR-L23 = settings: Large cell lung carcinoma
Experimental: as §1

HCC38 = settings: Mammary gland ductal carcinoma
Experimental: as §1

HCC1806 = settings: Breast carcinoma, TNBC
Experimental: as §1

H2087 = settings: Lung adenocarcinoma NSCLC
Experimental: as §1

U138-MG = settings: Brain glioblastaoma
Experimental: as §1

LS513 = settings: Colorectal carcinoma
Experimental: as §1

PANC1 = settings: Pancreatic ductal epithelioid carcinoma
Experimental: as §1

CCc1nn(C)c2c1/C=C/c1n[nH]c3ccc(cc13)-c1cnn(C)c1OCCN(C)C2=O [Ex. 6, (17E)-16-ethyl-8,12,14-trimethyl-2,11,12,14-tetrahydro-8H-3,5-ethenotripyrazolo[3,4-f:3′,4′-j:4″,3″-n][1,4]oxazacyclopentadecin-13(10H)-one]
IC50 (H23): 88.8 nM | IC50 (SUIT-2): 393 nM | IC50 (KCL22S): 61.2 nM | IC50 (786-O): 138 nM | IC50 (769-P): 91.6 nM | IC50 (H446): 112 nM | IC50 (A-498): 169 nM | IC50 (H1688): 116 nM | IC50 (Hs746T): 183 nM | IC50 (H2444): 117 nM | IC50 (HCC78): 42.7 nM | IC50 (BJ): 516 nM | IC50 (SK-LU-1): 166 nM | IC50 (THP-1): 107 nM | IC50 (N87): 20.8 nM | IC50 (HGC-27): 100 nM | IC50 (UCSD-AML1): 15.5 nM | IC50 (MIAPaCa-2): 53.2 nM | IC50 (KASUMI-1): 14 nM | IC50 (AU565): 25.5 nM | IC50 (TOV-112D): 62.5 nM | IC50 (EOL-1): 18.9 nM | IC50 (AGS): 87.9 nM | IC50 (H727): 100 nM | IC50 (TF-1): 57.6 nM | IC50 (U118-MG): 310 nM | IC50 (SNU-16): 90.5 nM | IC50 (H358): 148 nM | IC50 (H1792): 121 nM | IC50 (Kelly): 51.5 nM | IC50 (SW620): 76.5 nM | IC50 (H69): 100 nM | IC50 (PANC0504): 82.2 nM | IC50 (H1573): 80.6 nM | IC50 (PANC0203): 126 nM | IC50 (KCL22R): 64.8 nM | IC50 (MOLM14): 2.26 nM | IC50 (PC-9): 164 nM | IC50 (IMR-32): 11.2 nM | IC50 (COR-L23): 98.4 nM | IC50 (HCC38): 161 nM | IC50 (HCC1806): 85.9 nM | IC50 (H2087): 141 nM | IC50 (U138-MG): 170 nM | IC50 (LS513): 30.1 nM | IC50 (PANC1): 213 nM
